The values that follow are results of earlier work, collected in patent publication US20060148027A1, “Sprouty and SPRED protein biosensors” (Board of Regents, the University of Texas System, priority 2005, published 2006).

The conditions of this series: known potential of the reference redox dye.

With `Cc1cc2nc3cc(C)c(N)cc3[n+](-c3ccccc3)c2cc1N.[Cl-]` [Safranine O], the redox potential is given as −289 mV.
